In patent EP0325279A1, “Dehydrocholecalciferol derivatives” (F. HOFFMANN-LA ROCHE AG, priority 1988, dated 1989):
Where “and” joins values, the source holds several entries; their conditions need not be identical. Equal entries are not always repeated.

Key:
Type in all cases: cell-based
[1] = test system: gezüchteten menschlichen Keratinocyten; test: Morphological differentiation of cultured human keratinocytes (cell counts by cell type)
[2] = test system: menschlichen Keratinocyten; test: Number of human keratinocytes and cornified squamous cells formed in presence of compound
From the text: (§1) Die Aktivität der Verbindungen der Formel I als Mittel für die Behandlung von hyperproliferativen Hautkrankheiten kann auch durch Ermittlung der Anzahl von menschlichen Keratinocyten, von verhornten Plattenepithelzellen und von Plattenepithel-Karzinomzellenlinien (SCC-115), die sich in Gegenwart der besagten Verbindungen bilden.
(§2) Die Resultate sind in den Tabellen 4 und 5 angegeben: Tabelle 4

[3] = test system: menschlicher promyelocytischer Tumorzellen HL-60; test: Antiproliferative (AP) effect on HL-60 cells; settings: for IC50: Homo sapiens, concentration that reduces the cell number by 50%, read-out: ID50 (the source's name)
From the text: (§3) Zum Nachweis der Aktivität der Verbindungen der Formel I als Mittel zur Behandlung von neoplastischen Krankheiten wurden die antiproliferativen (AP) und die Differenzierung induzierenden Effekte (DI) der Verbindungen A bis F sowie die Anzahl menschlicher promyelocytischer Tumorzellen HL-60 ermittelt. In Tabelle 6 ist der AP Effekt als prozentuale Reduktion der Anzahl Zellen und als Konzentration ID₅₀, die die Zellenanzahl um 50% reduziert, angegeben. Der DI Effekt ist angegeben als Prozentsatz der differenzierten Zellen und als Konzentration ED₅₀ der Verbindungen, die eine 50%ige Differenzierung der Zellen bewirkt.

[4] = test system: menschlicher promyelocytischer Tumorzellen HL-60; test: Differentiation-inducing (DI) effect on HL-60 cells; settings: for EC50: Homo sapiens, concentration that causes 50% differentiation of the cells, read-out: ED50 (the source's name)
From the text: as §3

[5] = test system: Plattenepithel-Karzinomzellenlinien (SCC-15); test: Number of squamous carcinoma cell line cells formed in presence of compound
From the text: as §1, §2

[6] = Konzentration 0.01 (head prints x10 M)
[7] = Konzentration 0.1 (head prints x10 M)
[8] = Konzentration 1 (head prints x10 M)
[9] = Konzentration 10 (head prints x10 M)
[10] = Konzentration 100 (head prints x10 M)

| SMILES | Anzahl Zellen (x10⁴): Basalzellen ([1]; Dosis 10⁻¹⁰ M) | Anzahl Zellen (x10⁴): Gesamtanzahl ([1]; Dosis 10⁻¹⁰ M) | Anzahl Zellen (x10⁴): Plattenepithelzellen ([1]; Dosis 10⁻¹⁰ M) | Anzahl Zellen (x10⁴): verhornte Plattenepithelzellen ([1]; Dosis 10⁻¹⁰ M) | Anzahl Zellen (x10⁴): Basalzellen ([1]; Dosis 10⁻⁶ M) | Anzahl Zellen (x10⁴): Gesamtanzahl ([1]; Dosis 10⁻⁶ M) | Anzahl Zellen (x10⁴): Plattenepithelzellen ([1]; Dosis 10⁻⁶ M) | Anzahl Zellen (x10⁴): verhornte Plattenepithelzellen ([1]; Dosis 10⁻⁶ M) | Anzahl Zellen (x10⁴): Basalzellen ([1]; Dosis 10⁻⁸ M) | Anzahl Zellen (x10⁴): Gesamtanzahl ([1]; Dosis 10⁻⁸ M) | Anzahl Zellen (x10⁴): Plattenepithelzellen ([1]; Dosis 10⁻⁸ M) | Anzahl Zellen (x10⁴): verhornte Plattenepithelzellen ([1]; Dosis 10⁻⁸ M) | Anzahl Keratinocten (x10⁴) ([2]; Dosis 10⁻¹² M) | Anzahl verhornte Plattenepithelzellen (x10²) ([2]; Dosis 10⁻¹² M) | Anzahl Keratinocten (x10⁴) ([2]; Dosis 10⁻¹⁰ M) | Anzahl verhornte Plattenepithelzellen (x10²) ([2]; Dosis 10⁻¹⁰ M) | Anzahl Keratinocten (x10⁴) ([2]; Dosis 10⁻⁶ M) | Anzahl verhornte Plattenepithelzellen (x10²) ([2]; Dosis 10⁻⁶ M) | Anzahl Keratinocten (x10⁴) ([2]; Dosis 10⁻⁸ M) | Anzahl verhornte Plattenepithelzellen (x10²) ([2]; Dosis 10⁻⁸ M) | other results |
| --- | --- | --- | --- | --- | --- | --- | --- | --- | --- | --- | --- | --- | --- | --- | --- | --- | --- | --- | --- | --- | --- |
| C=C1/C(=C\C=C2/CCC[C@]3(C)C([C@H](C)CCCC(C)(C)O)=CC[C@@H]23)C[C@@H](O)C[C@@H]1O [Verbindung A, 1,25-Dihydroxy-16-dehydrocholecalciferol] | 115±7 x10⁴ | 132±8 x10⁴ | 17±1 x10⁴ | 27±2 x10⁴ | 71±5 x10⁴ | 101±7 x10⁴ | 30±2 x10⁴ | 39±2 x10⁴ | 106±8 x10⁴ | 128±10 x10⁴ | 22±2 x10⁴ | 33±2 x10⁴ | 114.91±10.95 x10⁴ | 1662.2± 420.1 x10² | 130.37±24.32 x10⁴ | 3973.8± 126.99 x10² | 109.22±15.87 x10⁴ | 8323.5± 157.6 x10² | 120.67±16.87 x10⁴ | 7235.2± 55.5 x10² | IC50 [3]: 2 nM; % Reduktion der Anzahl Zellen [3, 6]: 10%; % Reduktion der Anzahl Zellen [3, 7]: 33%; % Reduktion der Anzahl Zellen [3, 8]: 84%; % Reduktion der Anzahl Zellen [3, 9]: 85%; % Reduktion der Anzahl Zellen [3, 10]: 85%; EC50 [4]: 2 nM; Differenzierte Zellen (%) [4, 6]: 3%; Differenzierte Zellen (%) [4, 7]: 16%; Differenzierte Zellen (%) [4, 8]: 92%; Differenzierte Zellen (%) [4, 9]: 97%; Differenzierte Zellen (%) [4, 10]: 98% |
| C=C1/C(=C\C=C2/CCC[C@]3(C)C([C@H](C)CC#CC(C)(C)O)=CC[C@@H]23)C[C@@H](O)C[C@@H]1O [Verbindung E] | 63±2 x10⁴ | 86±4 x10⁴ | 23±2 x10⁴ | 114±5 x10⁴ | 41±1 x10⁴ | 78±3 x10⁴ | 27±2 x10⁴ | 147±4 x10⁴ | 53±2 x10⁴ | 82±3 x10⁴ | 29±1 x10⁴ | 141±5 x10⁴ | 187.36±15.33 x10⁴ | 1136.63± 383.66 x10² | 175.34±10.19 x10⁴ | 1444.87± 312.47 x10² | 41.95± 7.53 x10⁴ | 1916.83± 887.66 x10² | 145.79±15.66 x10⁴ | 2113.62±1049.33 x10² | Anzahl Zellenlinien (SCC-15) (x10⁵) ([5]; Dosis 10⁻¹² M): 6.98±1.68 x10⁵; Anzahl Zellenlinien (SCC-15) (x10⁵) ([5]; Dosis 10⁻¹⁰ M): 5.89±1.58 x10⁵; Anzahl Zellenlinien (SCC-15) (x10⁵) ([5]; Dosis 10⁻⁶ M): 0.40±0.98 x10⁵ and 0.49±0.13 x10⁵; Anzahl Zellenlinien (SCC-15) (x10⁵) ([5]; Dosis 10⁻⁸ M): 5.76±1.53 x10⁵; IC50 [3]: 0.7 nM; % Reduktion der Anzahl Zellen [3, 6]: 6%; % Reduktion der Anzahl Zellen [3, 7]: 59%; % Reduktion der Anzahl Zellen [3, 8]: 80%; % Reduktion der Anzahl Zellen [3, 9]: 81%; EC50 [4]: 1 nM; Differenzierte Zellen (%) [4, 6]: 9%; Differenzierte Zellen (%) [4, 7]: 50%; Differenzierte Zellen (%) [4, 8]: 96%; Differenzierte Zellen (%) [4, 9]: 98% |
